B1: Fetuin: glycoprotein containing N-acetylneuraminic acid (protein, UniProt P12763 19-359, looked up)
Alpha-2-HS-glycoprotein: IPLDPVAGYKEPACDDPDTEQAALAAVDYINKHLPRGYKHTLNQIDSVKVWPRRPTGEVYDIEIDTLETTCHVLDPTPLANCSVRQQTQHAVEGDCDIHVLKQDGQFSVLFTKCDSSPDSAEDVRKLCPDCPLLAPLNDSRVVHAVEVALATFNAESNGSYLQLVEISRAQFVPLPVSVSVEFAVAATDCIAKEVVDPTKCNLLAEKQYGFCKGSVIQKALGGEDVRVTCTLFQTQPVIPQPQPDGAEAEAPSAVPDAAGPTPSAAGPPVASVVVGPSVVAVPLPLHRAHYDLRHTFSGVASVESSSGEAFHVGKTPIVGQPSIPGGPVRLCPGRIRYFKI
B2: Asialofetuin: glycoprotein tested as hemagglutination inhibitor (protein, UniProt P12763 19-359, looked up)
Alpha-2-HS-glycoprotein: IPLDPVAGYKEPACDDPDTEQAALAAVDYINKHLPRGYKHTLNQIDSVKVWPRRPTGEVYDIEIDTLETTCHVLDPTPLANCSVRQQTQHAVEGDCDIHVLKQDGQFSVLFTKCDSSPDSAEDVRKLCPDCPLLAPLNDSRVVHAVEVALATFNAESNGSYLQLVEISRAQFVPLPVSVSVEFAVAATDCIAKEVVDPTKCNLLAEKQYGFCKGSVIQKALGGEDVRVTCTLFQTQPVIPQPQPDGAEAEAPSAVPDAAGPTPSAAGPPVASVVVGPSVVAVPLPLHRAHYDLRHTFSGVASVESSSGEAFHVGKTPIVGQPSIPGGPVRLCPGRIRYFKI
modifications: desialylated

What was measured:
lectin MFA [1] = assay: Hemagglutination-inhibition assay of the lectin MFA with monosaccharide, disaccharide and glycoprotein; type: biochemical, Maackia fauriei; parameters: key to Minimum erythrocyte agglutination inhibition concentration: —: The negative sign (−) means that there is no hemagglutination-inhibition; settings: for Minimum erythrocyte agglutination inhibition concentration: 6.25% mouse erythrocyte, lectin MFA diluted 128-fold; for inhibition of agglutination: starting from 1 mg/ml solution of each carbohydrate, 128-fold diluted lectin MFA
Protocol: In order to confirm that the lectin MFA of the present invention recognizes N-acetylneuraminic acid, hemagglutination-inhibition reaction was performed using monosaccharide, disaccharide and glycoprotein. 50 μl of a 128-fold diluted solution of lectin MFA in 0.15 M NaCl and 50 μl of each 1 mg/ml solution of monosaccharides (e.g., β-D-glucose, D-galactose, L-fucose, D-mannose, N-acetylneuraminic acid, N-glycolylneuraminic acid, N-acetyl-D-glucosamine, N-acetyl-D-galactosamine and methyl-α-D-glucopyranoside), disaccharide (e.g., α-lactose, β-lactose, D-lactose, β-gentiobiose, maltose, D-raffinose or D-cellobiose) and glycoprotein (e.g., fetuin and asialofetuin) in 0.15 M NaCl were added to the each well of a 96-well microplate. After the reaction for one hour or more at room temperature, 50 μl of the erythrocyte suspended in 0.15 M NaCl was added to each well and reacted for one hour at room temperature.
The negative sign (−) means that there is no hemagglutination-inhibition. […] NeuGc and NeuAc represent N-glycolylneuraminic acid and N-acetylneuraminic acid, respectively.

fetuin = assay: Comparison of binding specificity of lectins, hemagglutination inhibition by fetuin; type: biochemical; settings: 6.25% human B type erythrocyte
Protocol: (§1) The binding specificity of the MFA with Wheat germ agglutinin, Maackia amurensis aggulutinin, Limulus polyphemus lectin, and Sambucus niger agglutinin which have already been reported to recognize N-acetylneuraminic acid was determined by a hemagglutination inhibition response using 10 mM of N-acetylneuraminic acid and N-acetylneuraminic acid-binding fetuin.
(§2) The negative sign (−) means no hemagglutination inhibition up to 10 mM

[2] = Comparison of binding specificity of lectins, hemagglutination inhibition by N-acetylneuraminic acid; type: biochemical; settings: 6.25% human B type erythrocyte; tested up to 10 mM
Protocol: as §1, §2

lectin MFA [3] = assay: Hemagglutination-inhibition assay of the lectin MFA with monosaccharide, disaccharide and glycoprotein; type: biochemical, Maackia fauriei; settings: at 10 mM

Row | Molecule | Minimum erythrocyte agglutination inhibition concentration (lectin MFA [1]; dash = no inhibition) | other results
1 | OC[C@H]1O[C@@H](O[C@H]2[C@H](O)[C@@H](O)[C@@H](O)O[C@@H]2CO)[C@H](O)[C@@H](O)[C@H]1O [α-lactose] | — | 
2 | O=C(CO)N[C@H]1[C@H]([C@H](O)[C@H](O)CO)OC(O)(C(=O)O)C[C@@H]1O (some centres unmarked) [N-glycolylneuraminic acid] | — | 
3 | CC(=O)N[C@H]1C(O)O[C@H](CO)[C@H](O)[C@@H]1O (stereo partly drawn) [N-acetyl-D-galactosamine] | — | 
4 | CC(=O)N[C@H]1[C@H]([C@H](O)[C@H](O)CO)OC(O)(C(=O)O)C[C@@H]1O (some centres unmarked) [N-acetylneuraminic acid] |  | Minimum erythrocyte agglutination inhibition concentration (lectin MFA [1]): 10.0 mM; inhibition of agglutination (lectin MFA [1]): inhibited the agglutination
5 | OC[C@H]1O[C@@H](O[C@H]2[C@H](O)[C@@H](O)[C@H](O)O[C@@H]2CO)[C@H](O)[C@@H](O)[C@@H]1O [D-cellobiose] | — | 
6 | Wheat germ agglutinin |  | Minimum hemagglutination-inhibition concentration, Fetuin (fetuin): 207 µM; Minimum hemagglutination-inhibition concentration, N-acetylneuraminic acid [2]: — (The negative sign (−) means no hemagglutination inhibition up to 10 mM)
7 | CC(=O)N[C@H]1C(O)O[C@H](CO)[C@@H](O)[C@@H]1O (stereo partly drawn) [N-acetyl-D-glucosamine] | — | 
8 | OC[C@H]1O[C@@H](O[C@H]2[C@H](O)[C@@H](O)C(O)O[C@@H]2CO)[C@H](O)[C@@H](O)[C@H]1O (stereo partly drawn) [D-lactose] | — | 
9 | C[C@H](O)[C@@H](O)[C@@H](O)[C@H](O)C=O [L-fucose] | — | 
10 | OC[C@H]1O[C@@H](O[C@H]2[C@H](O)[C@@H](O)[C@H](O)O[C@@H]2CO)[C@H](O)[C@@H](O)[C@H]1O [β-lactose] | — | 
11 | O=C[C@@H](O)[C@@H](O)[C@H](O)[C@H](O)CO [D-mannose] | — | 
12 | CC(=O)N[C@H]1C(O)O[C@H](CO)[C@@H](O[C@@H]2O[C@H](CO)[C@H](O)[C@H](O)[C@H]2O)[C@@H]1O (some centres unmarked) [N-acetylactosamine] |  | hemagglutination inhibition (lectin MFA [3]): did not show hemagglutination inhibition
13 | CO[C@H]1O[C@H](CO)[C@@H](O)[C@H](O)[C@H]1O [Methyl-α-D-glucopyranoside] | — | 
14 | OC[C@H]1O[C@H](OC[C@H]2O[C@H](O[C@]3(CO)O[C@H](CO)[C@@H](O)[C@@H]3O)[C@H](O)[C@@H](O)[C@@H]2O)[C@H](O)[C@@H](O)[C@H]1O [D-raffinose] | — | 
15 | OC[C@H]1O[C@H](O[C@H]2[C@H](O)[C@@H](O)[C@H](O)O[C@@H]2CO)[C@H](O)[C@@H](O)[C@@H]1O [Maltose] | — | 
16 | OC[C@H]1O[C@@H](OC[C@H]2O[C@@H](O)[C@H](O)[C@@H](O)[C@@H]2O)[C@H](O)[C@@H](O)[C@@H]1O [β-gentiobiose] | — | 
17 | O=C[C@H](O)[C@@H](O)[C@@H](O)[C@H](O)CO [D-galactose] | — | 
18 | OC[C@H]1O[C@@H](O)[C@H](O)[C@@H](O)[C@@H]1O [β-D-glucose] | — | 
19 | B1 |  | Minimum erythrocyte agglutination inhibition concentration (lectin MFA [1]): 0.0052 mM; inhibition of agglutination (lectin MFA [1]): inhibited the agglutination
20 | B2 | — | 

Source: patent US7045300B2, “Lectin protein prepared from Maackia fauriei, process for preparing the same and the use thereof” (priority 2001, dated 2006)
